Measurements taken from patent publication US8912338B2, “Pesticidal compositions” (Dow AgroSciences LLC, priority 2010, dated 2014).

Tests used:
[1] = tested on: Green Peach Aphid (Myzus persicae); test: Insecticidal test for green peach aphid in foliar spray assay; format: in vivo; conditions: 72 h, 200 ppm foliar spray on cabbage seedlings, live aphids counted after three days, Abbott's corrected % control, read-out: MYZUPE % Ctrl @ 200 ppm
Protocol: Certain molecules disclosed in this document were tested against MYZUPE using procedures described in the following example. In the reporting of the results, the “MYZUPE, APHIGO and BEMITA Rating Table” was used (See Table Section).
Cabbage seedlings grown in 3-inch pots, with 2-3 small (3-5 cm) true leaves, were used as test substrate. The seedlings were infested with 20-50 green peach aphids (wingless adult and nymph stage) one day prior to chemical application. Four pots with individual seedlings were used for each treatment. Compounds (2 mg) were dissolved in 2 mL of acetone/methanol (1:1) solvent, forming stock solutions of 1000 ppm. The stock solutions were diluted 5× with 0.025% Tween 20 in H2O to obtain the test solution at 200 ppm. A hand-held Devilbiss sprayer was used for spraying a solution to both sides of cabbage leaves until runoff. Reference plants (solvent check) were sprayed with the diluent only. Treated plants were held in a holding room for three days at approximately 25° C. and 40% relative humidity (RH) prior to grading. Evaluation was conducted by counting the number of live aphids per plant under a microscope. Insecticidal activity data presented in Table 3 were generated by using Abbott's correction formula: Corrected%Control=100*(X−Y)/X • where X=No. of live aphids on solvent check plants • Y=No. of live aphids on treated plants

[2] = tested on: Cotton Aphid (Aphis gossypii); test: Insecticidal test for cotton aphid in a foliar spray assay; format: in vivo; conditions: 72 h, 200 ppm foliar spray on squash or cotton seedlings, live aphids counted after three days, Abbott's corrected % control, read-out: APHIGO % Ctrl @ 200 ppm
Protocol: Squash or cotton seedlings with fully expanded cotyledon leaves were trimmed to one cotyledon per plant and infested with wingless adult and nymph stage cotton aphid (APHIGO) one day prior to chemical application. Each plant was examined before chemical application to ensure uniform infestation (ca. 30-70 aphids per plant). Compounds (2 mg) were dissolved in 2 mL of acetone/methanol (1:1) solvent, forming stock solutions of 1000 ppm. The stock solutions were diluted 5× with 0.025% Tween 20 in H2O to obtain a solution at 200 ppm. A hand-held Devilbiss aspirator type sprayer was used to apply the spray solutions until runoff to both sides of the squash cotyledon leaves. Four plants (4 replications) were used for each concentration of each compound. Reference plants (solvent check) were sprayed with the diluent only. Treated plants were held in a holding room for three days at approximately 25° C. and 40% RH before the number of live cotton aphids on each plant was recorded. Insecticidal activity data presented in Table 3 were generated by using Abbott's correction formula: Corrected%Control=100*(X−Y)/X • where X=No. of live aphids on solvent check plants • Y=No. of live aphids on treated plants

[3] = tested on: Sweetpotato Whitefly (Bemisia tabaci); test: Insecticidal test for sweetpotato whitefly in foliar spray assay; format: in vivo; conditions: 200 ppm foliar spray on cotton plants infested with eggs, live nymphs counted after 8-9 days, Abbott's corrected % control, read-out: BEMITA % Ctrl @ 200 ppm
Protocol: Cotton plants were used as test substrate and were grown in 3-inch pots and pruned until only 1 small (3-5 cm) true leaf remained. The plants were then placed in a room with whitefly ([…]) adults and allowed to be infested with eggs. After a 2-3 day egg-laying period, plants were taken from the adult whitefly room and the adults were removed from the leaves using compressed air delivered through a hand-held Devilbiss sprayer (23 psi). Plants infested with eggs (100-300 eggs per plant) were placed in a controlled-environment room for 5-6 days at 82° F. and 50% RH until approximately 50% egg hatch. Four cotton plants (4 replicates) were used for each treatment. Compounds (2 mg) were dissolved in 1 mL of acetone solvent, forming stock solutions of 2000 ppm. The stock solutions were diluted 10× with 0.025% Tween 20 in H2O to obtain the test solution of 200 ppm. A hand-held Devilbiss sprayer was used for spraying a solution to both sides of cotton leaf until runoff. Reference plants (solvent check) were sprayed with the diluent only. Treated plants were held in a holding room for 8-9 days at approximately 82° F. and 50% RH prior to grading. Evaluation was conducted by counting the number of live nymphs per plant under a microscope. Insecticidal activity data presented in Table 3 were generated by using Abbott's correction formula: Corrected%Control=100*(X-Y)/X • where X=No. of live nymphs on solvent check plants • Y=No. of live nymphs on treated plants […]

| melting point | SMILES | inhibition at 200 ppm [1] | inhibition at 200 ppm [2] | inhibition at 200 ppm [3] |
| --- | --- | --- | --- | --- |
|  | CSCC(Cc1ccccc1)C(=O)N(C)c1nnc(-c2cccnc2)s1 (stereo not shown) [Compound 57] | 0 to 80% | 0 to 80% |  |
|  | CN(C(=O)C(C)(C)CS(C)(=O)=O)c1nnc(-c2cccnc2)s1 [Compound 33] | 80 to 100% | 80 to 100% | 0 to 80% |
| 198 to 201 °C | CN(C(=O)CCS(=O)(=O)Cc1ccccc1)c1nnc(-c2cccnc2)s1 [Compound 40] | < 0% | < 0% |  |
| 127 to 132 °C | CCOC(=O)Nc1nnc(-c2cccnc2)s1 [Compound 14] | < 0% | 0 to 80% |  |
|  | CN(C(=O)CCSc1ccccc1)c1nnc(-c2cccnc2)s1 [Compound 10] | 80 to 100% | 0 to 80% |  |
|  | CN(CCC(=O)N(C)c1nnc(-c2cccnc2)s1)C(=O)OCc1ccccc1 [Compound 31] | < 0% | < 0% |  |
|  | CSCCN(C)C(=O)N(C)c1nnc(-c2cncc(F)c2)s1 [Compound 83, 1-[5-(5-fluoro-pyridin-3-yl)-[1,3,4]thiadiazol-2-yl]-1,3-dimethyl-3-(2-methylsulfanyl-ethyl)-urea] | 80 to 100% |  | 0 to 80% |
| 192 to 194 °C | CSC(=O)N(C)c1nnc(-c2cccnc2)s1 [Compound 55, S-methyl methyl(5-(pyridin-3-yl)-1,3,4-thiadiazol-2-yl)carbamothioate] | < 0% | 0 to 80% |  |
|  | CN(C(=O)CCNC(=O)OCc1ccccc1)c1nnc(-c2cccnc2)s1 [Compound 30] | < 0% | 0 to 80% |  |
| 152 to 155 °C | COC(=O)CCC(=O)N(c1ccccc1)c1nnc(-c2cccnc2)s1 [Compound 59] | < 0% | 0 to 80% |  |
| 117 to 120 °C | CSCCC(=O)N(c1ccccc1)c1nnc(-c2cccnc2)s1 [Compound 58] |  | < 0% |  |
|  | CN(C(=O)CCSC(F)(F)F)c1nnc(-c2cccnc2)s1 [Compound 27, N-methyl-N-(5-(pyridin-3-yl)-1,3,4-thiadiazol-2-yl)-3-(trifluoromethylthio)propanamide] | 0 to 80% | 80 to 100% |  |
|  | CC(CS(C)(=O)=O)C(=O)N(C)c1nnc(-c2cccnc2)s1 (stereo not shown) [Compound 37] | 80 to 100% | 80 to 100% | 0 to 80% |
| 162 to 164 °C | CCOC(=O)N(C)c1nnc(-c2cccnc2)s1 [Compound 15] | < 0% | 0 to 80% |  |
|  | CSCC(C)C(=O)N(C)c1nnc(-c2cccnc2)s1 (stereo not shown) [Compound 28, N-2-Dimethyl-3-(methylthio)-N-(5-(pyridin-3-yl)-1,3,4-thiadiazol-2-yl)propanamide] | 80 to 100% | 80 to 100% | 0 to 80% |
| 152 to 154 °C | CSCCC(=O)N(C)c1nnc(-c2ccncc2)s1 [Compound 96] |  | 0 to 80% |  |
| 102 to 105 °C | CN(C(=O)C(C)(C)CO[Si](C)(C)C(C)(C)C)c1nnc(-c2cncc(F)c2)s1 |  |  |  |
|  | CCSCC(C)(C)C(=O)N(C)c1nnc(-c2cccnc2)s1 [Compound 17] | 80 to 100% | 80 to 100% | 0 to 80% |

| melting point | SMILES | inhibition at 200 ppm [1] | inhibition at 200 ppm [2] | inhibition at 200 ppm [3] |
| --- | --- | --- | --- | --- |
|  | CC(C)(CS(C)(=O)=O)C(=O)Nc1nnc(-c2cccnc2)s1 [Compound 36] | 0 to 80% | 80 to 100% |  |
|  | CS/C=C/C(=O)N(C)c1nnc(-c2cccnc2)s1 [Compound 21, (E)-N-methyl-3-(methylthio)-N-(5-(pyridin-3-yl)-1,3,4-thiadiazol-2-yl)acrylamide] | 80 to 100% | 0 to 80% |  |
|  | CCOC(=O)N(C)c1nnc(-c2cncc(F)c2)s1 [Compound 87] |  |  | 80 to 100% |
|  | CSCOC(=O)N(C)c1nnc(-c2cccnc2)s1 [Compound 54, methylthiomethyl methyl(5-(pyridin-3-yl)-1,3,4-thiadiazol-2-yl)carbamate] | < 0% | 0 to 80% |  |
| 60 to 75 °C | CN(C(=O)CCSC(c1ccccc1)(c1ccccc1)c1ccccc1)c1nnc(-c2cccnc2)s1 [Compound 22, N-methyl-N-(5-(pyridin-3-yl)-1,3,4-thiadiazol-2-yl)-3-(tritylthio)propanamide] | 0 to 80% | < 0% |  |
| 175 to 177 °C | COC(=O)CCC(=O)N(C)c1nnc(-c2ccncc2)s1 [Compound 97] | < 0% | 0 to 80% |  |
| 198 to 200 °C | CN(C(=O)OCCS(C)(=O)=O)c1nnc(-c2cccnc2)s1 [Compound 52] | 0 to 80% | 0 to 80% |  |
|  | CSCCNC(=S)N(C)c1nnc(-c2cncc(F)c2)s1 [Compound 86, 1-[5-(5-fluoro-pyridin-3-yl)-[1,3,4]thiadiazol-2-yl]-1-methyl-3-(2-methylsulfanyl-ethyl)-thiourea] | 80 to 100% |  | 80 to 100% |
| 155 to 159 °C | CN(C(=O)CCNC#N)c1nnc(-c2cccnc2)s1 [Compound 23, 3-(cyanoamino)-N-methyl-N-[5-(3-pyridyl)-1,3,4-thiadiazol-2-yl]propanamide] | 80 to 100% | 80 to 100% |  |
|  | CSCCC(=O)N(C)c1nnc(-c2cnccc2C(F)(F)F)s1 [Compound 60] | < 0% | 0 to 80% |  |
|  | COCCOC(=O)N(C)c1nnc(-c2cccnc2)s1 [Compound 16] | 0 to 80% | 80 to 100% |  |
| 110 to 112 °C | CN(C(=O)CCN)c1nnc(-c2cccnc2)s1 [Compound 41, 3-amino-N-methyl-N-(5-(pyridin-3-yl)-1,3,4-thiadiazol-2-yl)propanamide] | 0 to 80% | 80 to 100% |  |
| 182 to 188 °C | CSCC(C)(C)C(=O)Nc1nnc(-c2cccnc2)s1 [Compound 35] | 0 to 80% | 80 to 100% |  |
|  | CSCCC(=O)N(CC1CC1)c1nnc(-c2cccnc2)s1 [Compound 98] | 80 to 100% |  | < 0% |
| 133 to 135 °C | CC(=O)SCCC(=O)N(C)c1nnc(-c2cccnc2)s1 [Compound 26, S-3-(methyl(5-(pyridin-3-yl)-1,3,4-thiadiazol-2-yl)-amino)-3-oxopropyl ethanethioate] | 0 to 80% | 0 to 80% |  |
| 149 to 151 °C | CN(C(=O)CCS)c1nnc(-c2cccnc2)s1 [Compound 25, 3-mercapto-N-methyl-N-(5-(pyridin-3-yl)-1,3,4-thiadiazol-2-yl)propanamide] | 80 to 100% | 80 to 100% |  |
|  | CSCCCN(C(C)=O)c1nnc(-c2cccnc2)s1 [Compound 47] | < 0% | 0 to 80% |  |
